From patent US8324267B2, “Kinase inhibitors and the use thereof” (Forschungzentrum Karlsruhe GmbH, priority 2001, dated 2012)

Test system: 1AS cells
Assay: Growth of subcutaneous 1AS carcinomas in BDX rats
Assay type: in vivo, rat
Conditions: 1AS cells s.c., 4-5 mg/kg each day in DMSO, FIG. 7
Method: 1AS cells (5×10^5) were injected subcutaneously into 2 groups of BDX rats (8 rats per group). One group was subsequently injected with 100 μl of DMSO/animal per day up to the end of the experiment. The other group was injected with 100 μl of MAZ51 (10 mg/ml in DMSO)/animal, equivalent to 4-5 mg/kg, each day. The tumor volume was measured normally measured regularly after the injection of the tumor cells.
FIG. 7: Depiction of the tumor volume as a function of the number of days after tumor cell injection depending on the treatment of the 1AS tumor cells with MAZ51.

Compound: CN(C)c1ccc(C=C2C(=O)Nc3ccccc32)c2ccccc12 [MAZ51, 3-(4-Dimethylaminonaphthalen-1-ylmethylene)-1,3-dihydroindol-2-one]
- inhibition of tumor growth (tumor volume): considerably inhibited
